The results in this text go back to patent US10245229B2, “Pulmonary delivery of mRNA to non-lung target cells” (Shire Human Genetic Therapies, Inc., priority 2012, dated 2019).

The test system of this assay is non-lung cells. As to the kind of experiment: Comparison of delivery vehicles: luminescence in non-lung cells following pulmonary delivery. It counts as in vivo. The settings on record: following pulmonary delivery of FFL mRNA with the delivery vehicle.

For `CCCCCCCC/C=C\CCCCCCCC(=O)OCC(C[N+](C)(C)C)OC(=O)CCCCCCC/C=C\CCCCCCCC` (stereo not shown) [DOTAP, 1,2-Dioleoyl-3-Trimethylammonium-Propane], the “Luminescence / protein production in non-lung cells” value is listed as “did not show luminescence in non-lung cells”.
